The text below walks through data of article PMC10122656, “Siglec-6 mediates the uptake of extracellular vesicles through a noncanonical glycolipid binding pocket” (Nature Communications, 2023).

The target in one assay is Siglec-1-Fc WT (Homo sapiens, UniProt Q9BZZ2). Kind of assay: Liposome over lectin assay (LOLA). Type of assay: binding. The conditions noted are these: Siglec-1 WT; replicates. The method, then:
(§1) Siglec-Fc constructs designed by Rodrigues et al.[30] were used in this work. Siglec-Fc constructs were expressed using WT CHO cells in cell culture media as described above with 1% HEPES. Cells incubated as described above for one-week post confluency. The supernatant was harvested and stored at 4 °C.
(§2) The purification was heavily inspired by Rodrigues et al.[30]. The purification of the Siglec-Fcs from supernatant began with Ni^2+ affinity chromatography using an AKTA FPLC equipped with a HisTrap Excel column (GE). The column was equilibrated with fifteen column volumes (CVs) of equilibrium buffer (500 mM NaCl, 20 mM NaPO4H2, pH 7.4). The Siglec-Fc containing supernatant was then loaded in its entirety onto the column. The column was then washed with fifteen CVs of wash buffer (500 mM NaCl, 30 mM imidazole, 20 mM NaPO4H2, pH 7.4). The Siglec-Fc was then eluted in 20 in 1 mL fractions with twenty CVs of elution buffer (500 mM NaCl, 500 mM imidazole, 20 mM NaPO4H2, pH 7.4). Fractions containing Siglec-Fc were compiled and then prepared for the next stage of purification by diluting the fractions 1:4 with buffer W (100 mM Tris–HCl, 150 mM NaCl, 1 mM EDTA, pH 8.0). A Strep-Tactin column (IBA life sciences) was washed with fifteen CVs of buffer W. The Siglec-Fc-buffer W solution was then loaded in its entirety onto the column. The bound Siglec-Fc was then washed with fifteen CVs of buffer W. Siglec-Fc was eluted from the column with 15 column volumes of buffer E (100 mM Tris–HCl, 150 mM NaCl, 1 mM EDTA, 10 mM d-Desthiobiotin, pH 8.0). Fractions containing Siglec-Fc were pooled and dialyzed against PBS to remove any d-Desthiobiotin. After dialysis, Siglec-Fcs were concentrated using an ultra-centrifugal device (30 kDa MWCO) and aliquoted into 5 µg aliquots, and frozen. The Siglec-Fcs were then lyophilized overnight, and the lyophilized Siglec-Fcs were stored at −20 °C.
(§3) Siglec-Fc in PBS was adsorbed to a 96-well flat-bottom fluorescent microplate by adding 1 µg/well and incubating the plate at 4 °C overnight. The plate was then washed with PBS followed by blocking with 5% (m/V) BSA in PBS for 1 h at room temperature. The plate was again washed with PBS and 100 µM liposome in PBS was added to each well. The plate was then incubated at 37 °C for 30 min followed by washing with PBS. PBS was then added to the plate and the fluorescence intensity (λex 640 nm, λem 680 nm) of each well was measured using a Molecular Devices SpectraMAX ® iD5.

Another assay addresses T1, Siglec-6-Fc WT (Homo sapiens, UniProt O43699).
T1 construct: the Siglecs as Fc chimeras; made in house; host or cells: WT CHO cells
Kind of assay: Liposome over lectin assay (LOLA). Type of assay: binding. The conditions noted are these: Siglec-6 WT; replicates. The method, then:
as §1, §2, §3

For a further assay, the target named is T2, Siglec-7-Fc R124A (Homo sapiens, UniProt Q9Y286, R124A).
T2 construct: the Siglecs as Fc chimeras; made in house; host or cells: WT CHO cells
Kind of assay: Liposome over lectin assay (LOLA). The conditions noted are these: Siglec-7 R (arginine mutant); replicates. Type of assay: binding. On the procedure: as §1, §2, §3

For another assay, the target named is T3, Siglec-7-Fc WT (Homo sapiens, UniProt Q9Y286).
T3 construct: the Siglecs as Fc chimeras; made in house; host or cells: WT CHO cells
Kind of assay: Liposome over lectin assay (LOLA). Conditions: Siglec-7 WT; replicates. Type of assay: binding. The method, then:
as §1, §2, §3

The target of the next assay is T4, R122A Siglec-6-Fc (Homo sapiens, UniProt O43699, R122A).
T4 construct: the Siglecs as Fc chimeras; made in house; host or cells: WT CHO cells
The experiment in a line: Liposome over lectin assay (LOLA). Type of assay: binding. Conditions: Siglec-6 R (arginine mutant); replicates. The method, then:
as §1, §2, §3

Assay [1] addresses T5, CHO cells expressing Siglec-1 (Homo sapiens, UniProt Q9BZZ2).
T5 construct: expressed in transfected cells
Kind of assay: Liquid glycan array (LiGA) binding read out by next-generation sequencing. Type of assay: cell-based. Conditions: for LiGA signal at 0.034: Figure S9, 0.034; for LiGA signal at 0.041: Figure S9, 0.041; for LiGA signal at 0.048: Figure S9, first column 0.048; for LiGA: ganglioside oligosaccharide on phage binding to Siglec-1 CHO cells (Fig. 1e): replicates; for LiGA signal at 0.019: Figure S9, 0.019; for LiGA signal at 0.06: Figure S9, 0.06; for density at which LiGA binding to Siglec-1 CHO cells was maximal: oligosaccharide on phage. The method, then:
(§4) Solution of five SDB phage clones (10^12−10^13 PFU/mL in PBS) was combined in equal amounts (50 µL) to create a multiplexed silent barcode (MSDB). Twenty-four such MSDB were created and combined DBCO-NHS (50 mM in DMF) to afford a final concentration ranging from 0.25 to 2 mM. The reaction was incubated for 45 min at room temperature. The conjugates were purified by Zeba™ Spin Desalting column (7 kDa MWCO, 0.5 mL, Thermo Fisher) and pVIII modification rate was confirmed by MAL/DI using a previously reported protocol. Typically, 1 mM DBCO-NHS yields 25% of pVIII modification after 45 min incubation. Six MSDB were combined and a solution of azido-glycans (10 mM stock in Nuclease Free H2O) was added to the solution to afford a 2 mM concentration of glycan-azide and the solutions were further incubated overnight at 4 °C. The glycan conjugation was confirmed using MALDI-TOF. The conjugates were purified by Zeba column and supplemented with glycerol and stored as 50% glycerol stock at −20 °C. LiGA mixture was prepared by combining these solutions.
as §4, with “The solution of five” for “Solution of five”, “Fisher) and the pVIII modification” for “Fisher) and pVIII modification”
Confluent CHO cells expressing Siglec-1 or UT CHO cells were detached using PBS plus 5 mM EDTA and washed with PBS (2 × 5 mL). Suspension of at 2 × 10^6 cells in HEPES-1, % BSA (20 mM HEPES, 150 mM NaCl, 2 mM CaCl2, pH 7.4, 1% BSA) in a round bottom 3 mL tube (Corning, #352054) was combined with LiGA (10^8 PFU) and incubated for 1 h at 4 °C. The cells were then washed with HEPES-0.1% BSA in (2 × 3 mL) and HEPES buffer (1 × 1 mL). The washed cell pellet was resuspended in 30 µL nuclease-free H2O. The solution was incubated at 90 °C for 15 min, centrifuged at 21,000 × g for 10 min, and 25 µL of the supernatant was used for PCR and sequencing.

Where [2] appears, read: oligosaccharide density 0.008 Ligand/nm2.
The mark [3] stands for this setting: oligosaccharide density 0.019 Ligand/nm2.
Setting [4] is: oligosaccharide density 0.034 Ligand/nm2.
Setting [5] is: oligosaccharide density 0.041 Ligand/nm2.
Setting [6] is: oligosaccharide density 0.048 Ligand/nm2.
[7] abbreviates: oligosaccharide density 0.06 Ligand/nm2.

Several values for one entry are separate records, joined by “and”; a condition that tells them apart may be missing. Equal values may be shown once.

T5 sequence (Q9BZZ2 20-1709): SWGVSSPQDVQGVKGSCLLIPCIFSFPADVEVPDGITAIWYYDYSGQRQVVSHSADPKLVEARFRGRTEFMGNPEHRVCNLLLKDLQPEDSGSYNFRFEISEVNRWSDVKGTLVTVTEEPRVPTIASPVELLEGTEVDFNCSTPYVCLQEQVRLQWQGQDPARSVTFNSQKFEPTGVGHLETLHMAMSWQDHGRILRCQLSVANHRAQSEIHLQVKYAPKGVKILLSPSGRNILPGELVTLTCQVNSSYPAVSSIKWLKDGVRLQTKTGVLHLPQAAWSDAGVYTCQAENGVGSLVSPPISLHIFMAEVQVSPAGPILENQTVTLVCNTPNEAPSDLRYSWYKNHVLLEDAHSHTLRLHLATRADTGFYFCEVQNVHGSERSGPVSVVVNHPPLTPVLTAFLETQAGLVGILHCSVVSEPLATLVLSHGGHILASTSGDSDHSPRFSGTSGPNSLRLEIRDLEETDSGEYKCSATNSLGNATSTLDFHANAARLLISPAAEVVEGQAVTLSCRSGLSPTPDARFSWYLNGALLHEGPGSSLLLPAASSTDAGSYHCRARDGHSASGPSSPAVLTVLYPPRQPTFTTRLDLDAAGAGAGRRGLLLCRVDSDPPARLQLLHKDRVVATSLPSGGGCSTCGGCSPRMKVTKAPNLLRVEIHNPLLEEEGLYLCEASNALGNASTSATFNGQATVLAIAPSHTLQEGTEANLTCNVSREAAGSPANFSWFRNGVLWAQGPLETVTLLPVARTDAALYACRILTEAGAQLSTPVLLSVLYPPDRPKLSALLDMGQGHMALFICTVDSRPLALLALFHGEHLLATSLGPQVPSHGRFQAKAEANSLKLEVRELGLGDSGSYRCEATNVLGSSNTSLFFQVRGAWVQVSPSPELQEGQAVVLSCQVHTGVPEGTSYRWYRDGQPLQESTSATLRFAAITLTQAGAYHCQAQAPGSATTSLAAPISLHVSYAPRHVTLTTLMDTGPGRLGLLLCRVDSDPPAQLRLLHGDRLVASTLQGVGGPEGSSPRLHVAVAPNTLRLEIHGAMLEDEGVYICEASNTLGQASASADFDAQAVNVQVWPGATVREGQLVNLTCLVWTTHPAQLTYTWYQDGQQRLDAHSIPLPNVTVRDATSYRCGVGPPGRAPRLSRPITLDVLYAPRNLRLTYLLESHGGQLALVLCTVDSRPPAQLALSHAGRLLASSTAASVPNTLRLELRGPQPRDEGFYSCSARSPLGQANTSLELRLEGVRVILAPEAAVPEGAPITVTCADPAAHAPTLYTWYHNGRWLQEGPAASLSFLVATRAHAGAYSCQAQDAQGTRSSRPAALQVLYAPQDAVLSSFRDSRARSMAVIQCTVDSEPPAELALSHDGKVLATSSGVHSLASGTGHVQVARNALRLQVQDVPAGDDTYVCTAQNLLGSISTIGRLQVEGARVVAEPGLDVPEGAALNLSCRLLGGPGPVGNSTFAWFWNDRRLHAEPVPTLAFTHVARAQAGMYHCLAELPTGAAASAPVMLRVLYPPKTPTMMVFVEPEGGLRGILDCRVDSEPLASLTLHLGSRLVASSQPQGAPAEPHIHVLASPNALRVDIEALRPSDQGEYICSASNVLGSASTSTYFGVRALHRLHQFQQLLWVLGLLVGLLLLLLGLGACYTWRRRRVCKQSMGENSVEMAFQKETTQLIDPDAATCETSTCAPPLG
T3 sequence (Q9Y286 19-353 limits assumed): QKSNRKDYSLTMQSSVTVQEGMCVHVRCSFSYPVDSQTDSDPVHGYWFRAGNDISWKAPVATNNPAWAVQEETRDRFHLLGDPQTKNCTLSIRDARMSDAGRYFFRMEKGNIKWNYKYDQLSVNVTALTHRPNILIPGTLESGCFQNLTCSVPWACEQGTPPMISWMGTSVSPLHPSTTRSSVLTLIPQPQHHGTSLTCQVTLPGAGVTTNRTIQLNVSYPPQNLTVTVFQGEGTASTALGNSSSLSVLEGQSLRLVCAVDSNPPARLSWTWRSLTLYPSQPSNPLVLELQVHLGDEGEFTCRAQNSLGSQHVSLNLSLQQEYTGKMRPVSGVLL
T1 sequence (O43699 27-347 limits assumed): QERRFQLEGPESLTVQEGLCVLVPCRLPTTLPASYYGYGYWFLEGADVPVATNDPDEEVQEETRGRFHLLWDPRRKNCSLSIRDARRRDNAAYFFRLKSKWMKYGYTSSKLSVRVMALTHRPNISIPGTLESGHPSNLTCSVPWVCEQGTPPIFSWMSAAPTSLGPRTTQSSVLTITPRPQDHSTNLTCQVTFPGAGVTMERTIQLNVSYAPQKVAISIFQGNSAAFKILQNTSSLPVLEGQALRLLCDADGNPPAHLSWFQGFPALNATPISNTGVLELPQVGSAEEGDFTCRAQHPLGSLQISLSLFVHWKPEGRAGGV
T4 sequence (O43699 27-347 R122A limits assumed): as the sequence (O43699 27-347 limits assumed) above, with R96A counted along it
Chain of Siglec-1-Fc WT (Q9BZZ2 20-136 limits assumed): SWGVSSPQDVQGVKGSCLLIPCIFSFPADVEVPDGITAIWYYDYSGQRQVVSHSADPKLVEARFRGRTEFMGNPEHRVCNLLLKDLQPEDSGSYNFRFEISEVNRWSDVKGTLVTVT
T2 sequence (Q9Y286 19-353 R124A limits assumed): as the sequence (Q9Y286 19-353 limits assumed) above, with R106A counted along it

Regarding GD3, the “LOLA: GLL binding, fluorescence plate reader (Fig. 2e)” value (“LOLA: GLL binding” below) at Siglec-1-Fc WT is 9.49 and 6.85 and 10.11 and 9.9 and 7.11; at Siglec-6-Fc WT, 33.08 and 30.39 and 25.39 and 23.72 and 21.46; at Siglec-7-Fc R124A it was -0.64 and 18.58 and 8.22 and 12.6 and 8.15; on Siglec-7-Fc WT, 10.57 and 10.04 and 18 and 18.66 and 20.44; at R122A Siglec-6-Fc, 36.87 and 29.95 and 29.9 and 34.98 and 32.24.

For the substance GM3, in assay [1], the “LiGA signal at 0.034” value is 0.358 and 0.619 and 0.601 and 0.534. For the same substance, the “LiGA signal at 0.041” value in assay [1] was 0.827 and 1.082 and 1.01 and 1.1 and 0.616. Also, the “LiGA signal at 0.048” value in assay [1] is 0.881 and 0.783 and 0.773 and 1.152. The “LiGA: ganglioside oligosaccharide on phage binding to Siglec-1 CHO cells (Fig. 1e)” value (“LiGA: ganglioside oligosaccharide” for short) is 0.19 and 0.09 and 0.07 and 0.1 and 0.08 in assay [1] (setting [2]); 0.12 and 0.11 and 0.1 and 0.19 and 0.05 in assay [1] (setting [3]); 0.05 and 0.08 (2×) and 0.07 in assay [1] (setting [4]); 0.11 and 0.14 (2×) and 0.13 and 0.08 in assay [1] (setting [5]); 0.11 and 0.1 (2×) and 0.15 in assay [1] (setting [6]); 0.13 and 0.15 and 0.07 and 0.06 in assay [1] (setting [7]).

Consider GM1, for which the “LOLA: GLL binding” value is 5.66 and 12.97 and 11.61 and 4.8 and 8.91 on Siglec-1-Fc WT; 18.34 and 20.42 and 17.75 and 12.02 and 17.78 on Siglec-6-Fc WT; 2.83 and 4.02 and 10.31 and 3.55 and 12.57 at Siglec-7-Fc R124A; 6.49 and 5.21 and 2.94 and 8.58 and 5.66 on Siglec-7-Fc WT; 17.43 and 40.61 and 36.66 and 31.85 and 32.16 at R122A Siglec-6-Fc. The “LiGA signal at 0.019” value in assay [1] was 0.643 and 0.783 and 0.76 and 0.6. Also, the “LiGA signal at 0.034” value in assay [1] was 0.857 and 0.909 and 0.746 and 0.756 and 0.912. Also, in assay [1], the “LiGA signal at 0.06” value is 1.503 and 0.848 and 1.103 and 0.902 and 1.094. Further, the “LiGA signal at 0.048” value in assay [1] is 0.51 and 0.478 and 0.553 and 0.673. The “LiGA: ganglioside oligosaccharide” value in assay [1] (setting [2]) is 0.12 and 0.09 (2×) and 0.04; in assay [1] (setting [3]), 0.08 (2×) and 0.1 (2×); in assay [1] (setting [4]), 0.11 and 0.12 (2×) and 0.1 (2×); in assay [1] (setting [5]), 0.07 (3×) and 0.08; in assay [1] (setting [6]), 0.07 (2×) and 0.06 and 0.09; in assay [1] (setting [7]), 0.19 and 0.11 and 0.14 (2×) and 0.12.

Turning to GQ1b, the “LOLA: GLL binding” value on Siglec-1-Fc WT is 10.86 and 11.87 and 9.36 and 23.13 and 11.98; at Siglec-6-Fc WT, 19.03 and 15.89 and 21.18 and 22.9 and 35.39; on Siglec-7-Fc R124A, 6.14 and 4.56 and 5.96 and 16.03 and 20.32; at Siglec-7-Fc WT, 15.3 and 24.18 and 22.56 and 26.04 and 30.34; on R122A Siglec-6-Fc it was 25.13 and 35.2 and 35.69 and 28.06 and 30.69.

Turning to GD1a, the “LOLA: GLL binding” value on Siglec-1-Fc WT is 13.17 and 9.49 and 10.37 and 14.33 and 18.05; at Siglec-6-Fc WT, 28.61 and 32.95 and 30.67 and 25.13 and 23.55; on Siglec-7-Fc R124A, 6.47 and 10.42 and 11.8 and 5.25 and 10.13; on Siglec-7-Fc WT it was 7.1 and 6.68 and 9.94 and 10.73 and 13.26; on R122A Siglec-6-Fc it was 37.34 and 37.32 and 38.57 and 41.15 and 44.1. In assay [1], the “LiGA signal at 0.034” value was 3.442 and 2.502 and 3.222 and 3.062 and 2.777. Further, in assay [1], the “LiGA signal at 0.041” value is 1.814 and 2.04 and 1.9 and 2.274 and 1.639. For the same substance, the “LiGA signal at 0.048” value in assay [1] is 1.684 and 1.501 and 1.621 and 1.606. Besides, the “LiGA signal at 0.066” value in assay [1] (Figure S9, first column 0.066) was 2.309 and 1.395 and 2.352 and 2.266. Further, the “LiGA: ganglioside oligosaccharide” value is 0.05 (4×) and 0.04 in assay [1] (setting [2]); 0.2 and 0.13 and 0.03 and 0.15 in assay [1] (setting [3]); 0.41 and 0.39 and 0.36 and 0.44 and 0.32 in assay [1] (setting [4]); 0.24 and 0.29 and 0.21 and 0.23 and 0.26 in assay [1] (setting [5]); 0.19 and 0.21 (2×) and 0.22 and 0 in assay [1] (setting [6]); 0.18 and 0.3 (2×) and 0.29 in assay [1] (oligosaccharide density 0.066 Ligand/nm2). In addition, the “density at which LiGA binding to Siglec-1 CHO cells was maximal” value in assay [1] is listed as ~ 26 nm^2/ligand.

Turning to GM2, the “LiGA signal at 0.019” value in assay [1] is 0.917 and 0.919 and 0.922 and 1.035 and 1.785. Besides, the “LiGA signal at 0.06” value in assay [1] is 5.095 and 7.961 and 4.56 and 5.475. In assay [1], the “LiGA signal at 0.048” value was 6.111 and 6.403 and 6.572 and 7.724 and 12.213. Besides, the “LiGA: ganglioside oligosaccharide” value was 0.1 (2×) and 0.05 and 0.07 in assay [1] (setting [2]); 0.12 (3×) and 0.13 and 0.23 in assay [1] (setting [3]); 0.71 and 1.24 and 1.08 and 1.35 and 0.62 in assay [1] (setting [4]); 0.82 and 0.84 and 0.99 and 0.78 in assay [1] (setting [6]); 1.02 and 0.58 and 0.7 and 0.65 in assay [1] (setting [7]). In assay [1], the “density at which LiGA binding to Siglec-1 CHO cells was maximal” value is ~ 26 nm^2/ligand.
